Test results as given in PubChem BioAssay AID2060606 (Molecular Pharmacology Branch, DTP, NCI, 2025).
pIC50: −log10 of the molar value.

Tested on: 922993-354-T-J3-PDC complex spheroids, viability, % test/control
Assay: Anticancer human tumor 922993-354-T-J3-PDC patient-derived endometrial carcinoma cell line growth inhibition [CLK]
Settings: for pIC50: curve of first compound; for viability, T/C: stronger effect = lower value
Text: A high-throughput screen of multi-cell type tumor spheroids was designed to identify active combinations of […] and targeted small molecules. Complex spheroids include a stromal component modeled by human endothelial cells (HUVEC) and fibroblasts modeled by human mesenchymal stem cells (MSCs). The concentration ranges selected for each drug and investigational agent were based upon clinically achievable concentrations if the clinical Cmax of the agent was known.
Compounds. The drugs and investigational agents: cirtuvivint (SM08502; NSC835563), CC-671 (NSC850746), vemurafenib (NSC761431), tapotoclax (NSC804041), sotorasib (NSC818433), adagrasib (NSC831453), MRTX-1133 (NSC836407), BAY2416964 (NSC825713), copanlisib (NSC816437), inavolisib (NSC800729), abemaciclib (NSC768073), osimertinib (NSC779217), entinostat (NSC756642), eltanexor (KPT-8602, NSC794443), venetoclax (NSC766270), ceralasertib (NSC777638), bortezomib (NSC756655), olaparib (NSC753686), talazoparib (NSC767125), alisertib (NSC759677), peposertib (NSC802822), gemcitabine (NSC613327), 5-fluorouracil (NSC19893), SN-38 (NSC673596), oxaliplatin (NSC266046), paclitaxel (NSC125973), and doxorubicin (NSC123127), were obtained from the National Cancer Institute (NCI) Developmental Therapeutics Program Chemical Repository. The FDA-approved anticancer drug set is available from the Developmental Therapeutics Program at https://dtp.cancer.gov/organization/dscb/obtaining/available plates.htm. […] The stock solutions were prepared in dimethyl sulfoxide (DMSO, Sigma-Aldrich, St. Louis, MO, cat. D2650), except for the platinum complexes which were prepared in saline (Quality Biological, Gaithersburg, MD, cat. 114-055-101), at 800-fold the tested concentration and stored at -70 degrees C prior to their use. All drugs and investigational agents were tested over a range starting from a high concentration at or near the clinical Cmax and decreasing in half-log increments. If the clinical Cmax for an agent had not been determined, the highest concentration tested was 10 microM.
Cell Culture. All cells were maintained in an incubator at 37 degrees C and 5% CO2 with 95% humidity. The PDC lines were cultured according to standard operating procedures established by the NCI PDMR. Briefly, all PDCs were thawed and cultured in Matrigel-coated flasks prepared with a working solution of 1X Ham's F-12 nutrient mix, without supplementation (Invitrogen, Waltham, MA, cat. 11765054), 100 U/mL penicillin-streptomycin (Invitrogen, cat. 15140122), and 2.5% Matrigel (Corning Inc., Corning, NY, cat. 354248) for the first three passages. The 947758-054-R-J2-PDC line was cultured in 6B/Colon 1A media, which includes advanced DMEM/F-12 (Thermo Fisher Scientific, cat. 12634028), 10 mM HEPES (Thermo Fisher Scientific, cat. 15630080), 1X GlutaMAX supplement (Thermo Fisher Scientific, cat. 35050061), 0.1 mg/mL primocin (InvivoGen, cat. ant-pm-2), 10% defined fetal bovine serum, heat inactivated (HyClone Laboratories Inc., cat. SH30070.03HI), 1.25 mM N-Acetyl-L-cysteine (Sigma-Aldrich, cat. A9165), 10 mM nicotinamide (Sigma-Aldrich, cat. N0636), 1X B-27 supplement (Thermo Fisher Scientific, cat. 17504044), 1X N-2 supplement (Thermo Fisher Scientific, cat. 17502048), and 10 microM Y-27632 dihydrochloride (Tocris Bioscience, cat. 1254). The 876862-298-R-J1-PDC was cultured in 6E media, which includes all 6B/Colon 1A media components plus 50% L-WRN conditioned media (ATCC, cat. CRL-3276), 50 ng/mL recombinant human EGF recombinant protein (hEGF; Thermo Fisher Scientific, cat. PHG0311), 10 ng/mL recombinant human fibroblast growth factor 10 (hGFG-10; PeproTech, cat. 100-26), 1 ng/mL recombinant human fibroblast growth factor 2 (hFGF-2; PeproTech, cat. 100-18B), and 1 µM prostaglandin E2 (PGE2; Tocris, cat. 2296). The 227483-062-R1-J1-PDC line was cultured in Panc media, containing all 6E components except hFGF-2, with the addition of 500 nM SB-431542 (Selleckchem, cat. S1067) and 10 nM gastrin (Tocris, cat. 3006). […]

[1] = second compound 0.0316 µM, first compound 0.0316 µM
[2] = second compound 0.0316 µM, first compound 0.1 µM
[3] = second compound 0.0316 µM, first compound 0.316 µM
[4] = second compound 0.0316 µM, first compound 1 µM
[5] = second compound 0.0316 µM, first compound 3.16 µM
[6] = second compound 0.0316 µM, first compound 10 µM
[7] = second compound 0.1 µM, first compound 0.0316 µM
[8] = second compound 0.1 µM, first compound 0.1 µM
[9] = second compound 0.1 µM, first compound 0.316 µM
[10] = second compound 0.1 µM, first compound 1 µM
[11] = second compound 0.1 µM, first compound 3.16 µM
[12] = second compound 0.1 µM, first compound 10 µM
[13] = second compound 0.316 µM, first compound 0.0316 µM
[14] = second compound 0.316 µM, first compound 0.1 µM
[15] = second compound 0.316 µM, first compound 0.316 µM
[16] = second compound 0.316 µM, first compound 1 µM
[17] = second compound 0.316 µM, first compound 3.16 µM
[18] = second compound 0.316 µM, first compound 10 µM
[19] = second compound 1 µM, first compound 0.0316 µM
[20] = second compound 1 µM, first compound 0.1 µM
[21] = second compound 1 µM, first compound 0.316 µM
[22] = second compound 1 µM, first compound 1 µM
[23] = second compound 1 µM, first compound 3.16 µM
[24] = second compound 1 µM, first compound 10 µM
[25] = second compound 3.16 µM, first compound 0.0316 µM
[26] = second compound 3.16 µM, first compound 0.1 µM
[27] = second compound 3.16 µM, first compound 0.316 µM
[28] = second compound 3.16 µM, first compound 1 µM
[29] = second compound 3.16 µM, first compound 3.16 µM
[30] = second compound 3.16 µM, first compound 10 µM
[31] = second compound 10 µM, first compound 0.0316 µM
[32] = second compound 10 µM, first compound 0.1 µM
[33] = second compound 10 µM, first compound 0.316 µM
[34] = second compound 10 µM, first compound 1 µM
[35] = second compound 10 µM, first compound 3.16 µM
[36] = second compound 10 µM, first compound 10 µM
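Further: spheroids exposed to the agents for 7 days before readout.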

C=C(F)C(=O)N1CCN(c2nc(OCC3CCCN3C)nc3c2CCN(c2cccc4cccc(Cl)c24)C3)CC1CC#N (centres undefined) + CN1CCN(c2cc(C(=O)Nc3cc4cc(-c5cnn(C)c5)ccc4cn3)ccn2)CC1
pIC50 (second compound 0.0316 µM): 5.27
pIC50 (second compound 0.1 µM): 5.25
pIC50 (second compound 0.316 µM): > 7.50
pIC50 (second compound 1 µM): > 7.50
pIC50 (second compound 3.16 µM): > 7.50
pIC50 (second compound 10 µM): > 7.50
viability, T/C [1]: 121%
viability, T/C [2]: 103%
viability, T/C [3]: 118%
viability, T/C [4]: 101%
viability, T/C [5]: 94%
viability, T/C [6]: 1.08%
viability, T/C [7]: 106%
viability, T/C [8]: 95.9%
viability, T/C [9]: 92.6%
viability, T/C [10]: 87%
viability, T/C [11]: 110%
viability, T/C [12]: 1.37%
viability, T/C [13]: 50.1%
viability, T/C [14]: 51.6%
viability, T/C [15]: 36.4%
viability, T/C [16]: 41.5%
viability, T/C [17]: 45.6%
viability, T/C [18]: 0.87%
viability, T/C [19]: 0.79%
viability, T/C [20]: 0.16%
viability, T/C [21]: 0.83%
viability, T/C [22]: 0.12%
viability, T/C [23]: 0.11%
viability, T/C [24]: 1.63%
viability, T/C [25]: 0.14%
viability, T/C [26]: 0.63%
viability, T/C [27]: 0.92%
viability, T/C [28]: 0.12%
viability, T/C [29]: 0.11%
viability, T/C [30]: 1.67%
viability, T/C [31]: 0.19%
viability, T/C [32]: 0.18%
viability, T/C [33]: 0.88%
viability, T/C [34]: 0.29%
viability, T/C [35]: 0.19%
viability, T/C [36]: 0.93%

C=CC(=O)N1CCN(c2nc(=O)n(-c3c(C)ccnc3C(C)C)c3nc(-c4c(O)cccc4F)c(F)cc23)C(C)C1 (centres undefined) + CN1CCN(c2cc(C(=O)Nc3cc4cc(-c5cnn(C)c5)ccc4cn3)ccn2)CC1
pIC50 (second compound 0.0316 µM): < 5.00
pIC50 (second compound 0.1 µM): < 5.00
pIC50 (second compound 0.316 µM): 7.36
pIC50 (second compound 1 µM): > 7.50
pIC50 (second compound 3.16 µM): > 7.50
pIC50 (second compound 10 µM): > 7.50
viability, T/C [1]: 121%
viability, T/C [2]: 123%
viability, T/C [3]: 132%
viability, T/C [4]: 116%
viability, T/C [5]: 112%
viability, T/C [6]: 112%
viability, T/C [7]: 105%
viability, T/C [8]: 98.6%
viability, T/C [9]: 114%
viability, T/C [10]: 91.6%
viability, T/C [11]: 106%
viability, T/C [12]: 90.1%
viability, T/C [13]: 50.9%
viability, T/C [14]: 48.5%
viability, T/C [15]: 43.5%
viability, T/C [16]: 37.8%
viability, T/C [17]: 41.4%
viability, T/C [18]: 47.4%
viability, T/C [19]: 0.19%
viability, T/C [20]: 0.68%
viability, T/C [21]: 0.16%
viability, T/C [22]: 0.93%
viability, T/C [23]: 0.13%
viability, T/C [24]: 0.12%
viability, T/C [25]: 0.13%
viability, T/C [26]: 0.17%
viability, T/C [27]: 1.53%
viability, T/C [28]: 0.1%
viability, T/C [29]: 0.14%
viability, T/C [30]: 1.14%
viability, T/C [31]: 0.16%
viability, T/C [32]: 0.18%
viability, T/C [33]: 0.17%
viability, T/C [34]: 0.15%
viability, T/C [35]: 0.79%
viability, T/C [36]: 0.2%
